Test results: patent US9636417B2, “Mucosal membrane receptor and uses thereof” (Universiteit Gent, priority 2008, dated 2017)
“Also recorded” adds a separate entry of the source.

How the values were obtained:
pAPN-BHK-21 cells = experiment: Endocytosis assay (confocal microscopy) of FLUOS-labeled-F4 with chemical inhibitors; assay type: cell-based, porcine; conditions: for effect on F4 internalization in pAPN-BHK cells: different concentrations, inhibitor added 30 min before FLUOS-labeled-F4
Experimental: Cells were then washed with PBS supplemented with 0.1 mM CaCl2 and 1 mM MgCl2 (PBS+) to remove unbound FLUOS-labeled-F4 and shifted to 37° C. to start endocytosis. After different time intervals, cells were fixed with 3% paraformaldehyde (PF), permeabilized with 0.1% Triton X-100 and stained with 200 nM phalloidin-Texas Red (Molecular Probes, Eugene, Oreg., USA) in PBS+ for 1 h at 37° C. To analyze the effect of different inhibitors on endocytosis, cells were incubated with different concentrations of each inhibitor (Table 1). Inhibitors were added 30 min before incubation with FLUOS-labeled-F4 (25 μg). Cells were fixed with 3% PF at the indicated times. For each concentration of the chemical inhibitors, the viability of the cells was analyzed by flow cytometry after the addition of 10 μg propidium iodide (Molecular Probes, Eugene, Oreg., USA). The number of vesicles internalized in the cells was counted using confocal microscopy. Confocal images were acquired using a Leica TCS SP2 laser scanning spectrum confocal system (Leica Microsystems), using an argon 488-nm laser line and a […] 543-nm laser line to excite FITC and Texas Red respectively. Images were merged using Leica confocal software.

BBMV of F4R+ pigs = experiment: F4 binding to BBMV after glycosidase or periodate treatment; design: species or system pig
Experimental: To remove sialic acid from the pAPN, 2 mg/ml BBMV from F4R+ pigs were incubated with soluble neuraminidase from Arthrobacter urefaciens (Calbiochem, specific for α2-3,6,8,9 linked sialic acid) for 3 hours at 37° C. according to the manufacturer's instructions. Fetuin, a sialic acid containing protein was used as a positive control and the buffer in which the neuraminidase was provided, was used as a negative control. Brush border membrane vesicles from F4R+ pigs were treated with N-glycosidase F (NEB, Beverly, Mass.) or with endoglycosidase H (NEB Beverly, Mass.) according to the manufacturer's instructions to remove all N-glycans (high mannose and complex, sialic acid containing glycans) or N-glycans of the high mannose type, respectively. RNAse B was used as a positive control and the buffer in which the enzyme was provided, was used as a negative control.
Brush border membrane vesicles from F4R+ pigs were treated with variable concentrations of NaIO4 (Sigma-Aldrich Chemie GmbH, Steinheim, Germany) in 50 mM sodiumacetate, pH 4.5, at 37° C. in the dark. Reactions were stopped by the addition of ethylene glycol to a final concentration of 20 mM. Brush border membrane vesicles from F4R− pigs were treated with the same […] and were used as a negative control.

[1] = target: T1, pAPN transfected BHK-21 cells (Sus scrofa, UniProt P15145); experiment: Flow cytometry of FLUOS-labeled-F4 binding to pAPN transfected BHK-21 cells; assay type: cell-based, porcine
T1 construct: expressed in transfected cells; host or cells: BHK-21 (baby hamster kidney), G418-selected; gift
T1 sequence (P15145 1-963): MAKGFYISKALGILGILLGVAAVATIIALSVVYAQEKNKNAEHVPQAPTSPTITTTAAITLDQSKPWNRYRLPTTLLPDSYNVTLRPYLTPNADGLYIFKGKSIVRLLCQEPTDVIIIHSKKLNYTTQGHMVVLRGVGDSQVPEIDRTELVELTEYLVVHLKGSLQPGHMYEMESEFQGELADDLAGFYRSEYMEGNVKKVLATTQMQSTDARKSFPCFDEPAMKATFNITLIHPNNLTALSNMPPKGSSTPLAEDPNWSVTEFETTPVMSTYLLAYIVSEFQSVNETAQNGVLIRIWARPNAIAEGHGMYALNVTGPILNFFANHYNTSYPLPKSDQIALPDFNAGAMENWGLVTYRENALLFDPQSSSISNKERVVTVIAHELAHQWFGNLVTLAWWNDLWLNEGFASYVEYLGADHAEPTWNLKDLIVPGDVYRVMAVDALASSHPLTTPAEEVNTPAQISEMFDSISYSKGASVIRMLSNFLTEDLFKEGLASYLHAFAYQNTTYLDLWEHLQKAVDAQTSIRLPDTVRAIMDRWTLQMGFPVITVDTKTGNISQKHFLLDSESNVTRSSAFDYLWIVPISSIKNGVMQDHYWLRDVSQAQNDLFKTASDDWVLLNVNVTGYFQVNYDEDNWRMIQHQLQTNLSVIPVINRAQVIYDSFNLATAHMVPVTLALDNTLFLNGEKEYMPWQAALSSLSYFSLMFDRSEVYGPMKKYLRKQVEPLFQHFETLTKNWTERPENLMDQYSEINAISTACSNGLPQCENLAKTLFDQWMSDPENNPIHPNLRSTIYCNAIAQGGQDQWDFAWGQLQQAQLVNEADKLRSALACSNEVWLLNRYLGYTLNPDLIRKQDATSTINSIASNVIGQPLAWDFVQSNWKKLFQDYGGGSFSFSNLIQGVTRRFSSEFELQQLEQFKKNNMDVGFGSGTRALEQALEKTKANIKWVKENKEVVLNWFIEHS
Experimental: The BHK-21 and pAPN transfected BHK-21 cells were kindly gifted from Dr. Enjuanes and Dr. Delmas. The BHK-21 cells were cultured in DMEM with 5% FCS, 1% L-Glu, 1% P/S, 1% sodiumpyruvate (Gibco BRL, Life Technologies Inc., Paisley, Scotland), 1% non-essential amino acids (Gibco BRL, Life Technologies Inc., Paisley, Scotland). The pAPN transfected BHK-21 cells were grown in the same medium supplemented with 1.5 mg/ml geneticin G418 (Sigma-Aldrich Chemie GmbH, Steinheim, Germany).
To block the internalization of FLUOS-labeled-F4, 50 μM bestatin, an inhibitor of aminopeptidase N (Sigma-Aldrich Chemie GmbH, Steinheim, Germany) was incubated with BHK-21 or pAPN transfected BHK-21 cells 3 hours before addition of 25 μg FLUOS-labeled-F4. Afterwards, cells were washed 3 times with PBS. The BHK-21 or pAPN transfected BHK-21 cells were analyzed by flow cytometry with a FACScanto using CellDiva software (BD Biosciences). Ten thousand cells were analysed for each sample, and three parameters were used for further analysis: forward light scattering, sideward light scattering and green fluorescence. The median fluorescence intensity was used to measure the amount of FLUOS-labeled-F4 to the cells.

[2] = target: T2, F4R on brush border membrane vesicles (BBMV) (Sus scrofa, UniProt P15145); experiment: biochemical; assay type: binding, pig; conditions: read-out: inhibition of adhesion of F4R+ BBMV to F4ac
T2 construct: Brush border membrane vesicles (BBMV) of the small intestine were prepared from the F4R+ and F4R− pigs; from tissue; host or cells: pig jejunum: enterocyte preparations, BBMV, ligated jejunal loops
T2 sequence (P15145 2-963): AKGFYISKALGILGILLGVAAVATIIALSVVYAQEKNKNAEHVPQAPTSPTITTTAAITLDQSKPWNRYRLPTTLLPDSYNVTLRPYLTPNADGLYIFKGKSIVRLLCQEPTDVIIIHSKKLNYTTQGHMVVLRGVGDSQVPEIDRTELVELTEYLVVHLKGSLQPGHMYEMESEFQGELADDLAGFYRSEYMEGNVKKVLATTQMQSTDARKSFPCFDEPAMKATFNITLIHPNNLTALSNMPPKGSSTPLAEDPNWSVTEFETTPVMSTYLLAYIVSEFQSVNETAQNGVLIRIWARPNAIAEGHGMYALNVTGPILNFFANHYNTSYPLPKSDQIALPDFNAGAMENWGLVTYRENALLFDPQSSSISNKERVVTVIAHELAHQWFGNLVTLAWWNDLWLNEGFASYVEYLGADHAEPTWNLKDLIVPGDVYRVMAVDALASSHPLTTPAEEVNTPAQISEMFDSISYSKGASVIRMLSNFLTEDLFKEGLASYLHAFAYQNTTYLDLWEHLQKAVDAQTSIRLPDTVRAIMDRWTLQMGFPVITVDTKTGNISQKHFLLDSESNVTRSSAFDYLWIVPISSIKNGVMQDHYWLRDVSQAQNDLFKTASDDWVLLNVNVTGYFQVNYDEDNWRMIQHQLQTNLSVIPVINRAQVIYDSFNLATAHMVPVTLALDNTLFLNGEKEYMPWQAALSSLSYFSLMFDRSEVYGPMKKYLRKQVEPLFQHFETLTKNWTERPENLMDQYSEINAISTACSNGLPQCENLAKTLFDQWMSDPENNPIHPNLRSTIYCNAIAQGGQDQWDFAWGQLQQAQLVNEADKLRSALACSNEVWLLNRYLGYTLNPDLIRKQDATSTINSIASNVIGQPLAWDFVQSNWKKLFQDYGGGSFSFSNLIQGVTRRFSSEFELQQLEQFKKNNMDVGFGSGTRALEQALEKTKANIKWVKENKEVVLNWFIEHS
Experimental: Brush border membrane vesicles (BBMV) of the small intestine were prepared from the F4R+ and F4R− pigs by the method of Kessler (1978) with a slight modification. Enterocytes were washed twice in PBS with 0.1 mM PMSF and were resuspended in Tris-HCl buffer (2 mM, pH 7.2) containing 50 mM mannitol in ratio 3:1 (vol/vol) whereafter cells were homogenized for 2 min with an Ultra Turrax (Janke & Kunkel, I K A Labortechnik, Staufen, Germany). Subsequently, CaCl2 was added to the homogenate to a final concentration of 10 mM and placed on ice for 15 min. Then the homogenate was centrifugated at 27,000×g for 30 min and washed with Tris buffer (pH 7.5) containing 50 mM mannitol and 10 mM HEPES and centrifuged again. The pellet was resuspended in the same buffer and used for the study. The protein concentration of the obtained BBMV was determined using the bicinchoninic acid (BCA) reaction with bovine serum albumin (BSA) as standard (ICN Biomedicals, Belgium).
The interaction between the F4ac fimbriae and BBMV or enterocytes of F4R+ and F4R− pigs was analyzed with the BIAcore®2000 biosensor (Uppsala, Sweden) using the CM3 chip. […]

F4R on enterocytes = target: T3, F4R on enterocytes (Sus scrofa, UniProt P15145); experiment: biochemical; assay type: binding, pig; conditions: read-out: inhibition of adhesion of F4R+ enterocytes to F4ac
T3 construct: Brush border membrane vesicles (BBMV) of the small intestine were prepared from the F4R+ and F4R− pigs; from tissue; host or cells: pig jejunum: enterocyte preparations, BBMV, ligated jejunal loops
T3 sequence (P15145 2-963): T2 sequence (P15145 2-963)
Experimental: The interaction between the F4ac fimbriae and BBMV or enterocytes of F4R+ and F4R− pigs was analyzed with the BIAcore®2000 biosensor (Uppsala, Sweden) using the CM3 chip. This has a short carboxymethyldextran surface to allow immobilization of F4 fimbriae via free NH2-groups using an amine-coupling kit (Biacore, Uppsala, Sweden) containing N-hydroxysuccinimide (NHS), N-ethyl-N′-[(3-dimethylamino)-propyl]-carbodiimide hydrochloride (EDC) and ethanolamine-HCl. Hereto, 100 μl of a mixture of NHS:EDC (1:1) was injected at a flow rate of 10 μl/min at 25° to activate the dextran matrix on the sensor chip, followed by F4ac at a concentration of 100 μg/ml in 0.1 M glycine buffer pH 2.3 until the amount (mol) of immobilized F4 equilized more than 500 resonance units (RU). […] Subsequently, the remaining active sites of the matrix were blocked with 1 M ethanolamine-HCl and washed with HBS-N (0.01 M HEPES, 0.15 M NaCl). […] All samples used in further experiments were diluted in HBS-N buffer, which also served as running buffer during the experiments.
The first approach was to pre-incubate the F4R+ and F4R− enterocytes or BBMV with 0, 50 and 100 μg/ml F4ac fimbriae, while gently shaking. After 1 h pre-incubation at room temperature, a gentle short spin centrifugation was performed. […]

[3] = tested on: wheat germ agglutinin (WGA); experiment: SPR specificity control: bestatin pre-incubated BBMV and enterocytes on immobilized WGA; assay type: binding; conditions: bestatin 0 mM, 1 mM and 10 mM; F4R+ pigs
Experimental: The interaction between the F4ac fimbriae and BBMV or enterocytes of F4R+ and F4R− pigs was analyzed with the BIAcore®2000 biosensor (Uppsala, Sweden) using the CM3 chip. This has a short carboxymethyldextran surface to allow immobilization of F4 fimbriae via free NH2-groups using an amine-coupling kit (Biacore, Uppsala, Sweden) containing N-hydroxysuccinimide (NHS), N-ethyl-N′-[(3-dimethylamino)-propyl]-carbodiimide hydrochloride (EDC) and ethanolamine-HCl. Hereto, 100 μl of a mixture of NHS:EDC (1:1) was injected at a flow rate of 10 μl/min at 25° to activate the dextran matrix on the sensor chip, followed by F4ac at a concentration of 100 μg/ml in 0.1 M glycine buffer pH 2.3 until the amount (mol) of immobilized F4 equilized more than 500 resonance units (RU). Thousand RU corresponds to a change in the surface concentration of 1 ng/mm2 (Stenberg 1991). Subsequently, the remaining active sites of the matrix were blocked with 1 M ethanolamine-HCl and washed with HBS-N (0.01 M HEPES, 0.15 M NaCl). […] All samples used in further experiments were diluted in HBS-N buffer, which also served as running buffer during the experiments.
To check the specificity of blocking of bestatin, F4R+ and F4R− enterocytes or BBMV were pre-incubated with 0, 1 mM and 10 mM bestatin, while gently shaking for 1 hour at room temperature and injected in the WGA coated flow cell. […]

OC[C@H]1O[C@@](CO)(O[C@H]2O[C@H](CO)[C@@H](O)[C@H](O)[C@H]2O)[C@@H](O)[C@@H]1O [hypertonic sucrose, sucrose]
effect on F4 internalization in pAPN-BHK cells (pAPN-BHK-21 cells): reduced the F4 internalization

C/C1=C/C(=O)O[C@@H]2C[C@@H](CC[C@H](C)/C=C\CC1)O[C@@](O)([C@@H]1CSC(=O)N1)C2 [latrunculin B]
effect on F4 internalization in pAPN-BHK cells (pAPN-BHK-21 cells): no effect

NC12CC3CC(CC(C3)C1)C2 [amantadine]
effect on F4 internalization in pAPN-BHK cells (pAPN-BHK-21 cells): reduced the F4 internalization

[O-][I+3]([O-])([O-])O [NaIO4]
binding of F4 to the receptor in BBMV of F4R+ pig (BBMV of F4R+ pigs; 25 mM NaIO4, 30 min): greatly reduced
F4ac binding to the BBMV of F4R+ pigs (BBMV of F4R+ pigs; periodate, two hours treatment): abolishing; also recorded: abolished

C=C1[C@@H](C)[C@H]2[C@H](Cc3ccccc3)NC(=O)[C@]23[C@H](OC(C)=O)/C=C/[C@@](C)(O)C(=O)[C@@H](C)C/C=C/[C@H]3[C@@H]1O [cytochalasin D]
effect on F4 internalization in pAPN-BHK cells (pAPN-BHK-21 cells): reduced the F4 internalization

CC(C)C[C@H](NC(=O)[C@@H](O)[C@H](N)Cc1ccccc1)C(=O)O [bestatin]
mean fluorescence intensity after treatment of bestatin [1]: 1001±15
inhibition at 1000 µM [2]: 4 ± 1.2%
inhibition at 10000 µM [2]: 10 ± 2%
inhibition at 1000 µM (F4R on enterocytes): 22 ± 3.3%
inhibition at 10000 µM (F4R on enterocytes): 72 ± 1%
interaction of pre-incubated BBMV or enterocytes with WGA [3]: No difference in interaction
FLUOS-labeled F4 internalization (pAPN-BHK-21 cells; bestatin 50 μM, added 30 minutes before FLUOS-labeled F4, pAPN-BHK cells): 18±5.3%

dynamin inhibitory peptide
effect on F4 internalization in pAPN-BHK cells (pAPN-BHK-21 cells): reduced the F4 internalization
